Assay results taken from the NIST ThermoML archive (doi:10.1021/acs.jced.9b00308).
± gives the expanded uncertainty stated by the source.

Tests used:
[1] = Crystal 1; DSC
[2] = Molar enthalpy of transition or fusion; settings: Crystal 1; DSC

SMILES: O=C1Cc2ccccc2N1 [indolin-2-one]
- Triple point temperature [1]: 393.93 ± 4.1 K
- Molar enthalpy of transition or fusion [2]: 3.94 ± 0.717 kcal/mol
